From BindingDB's records for patent US12037345 (Taiho Pharmaceutical, 2024)

Biological target: T1, Tyrosine-protein phosphatase non-receptor type 11 (Homo sapiens, UniProt Q06124)
T1 sequence (Q06124 whole entry): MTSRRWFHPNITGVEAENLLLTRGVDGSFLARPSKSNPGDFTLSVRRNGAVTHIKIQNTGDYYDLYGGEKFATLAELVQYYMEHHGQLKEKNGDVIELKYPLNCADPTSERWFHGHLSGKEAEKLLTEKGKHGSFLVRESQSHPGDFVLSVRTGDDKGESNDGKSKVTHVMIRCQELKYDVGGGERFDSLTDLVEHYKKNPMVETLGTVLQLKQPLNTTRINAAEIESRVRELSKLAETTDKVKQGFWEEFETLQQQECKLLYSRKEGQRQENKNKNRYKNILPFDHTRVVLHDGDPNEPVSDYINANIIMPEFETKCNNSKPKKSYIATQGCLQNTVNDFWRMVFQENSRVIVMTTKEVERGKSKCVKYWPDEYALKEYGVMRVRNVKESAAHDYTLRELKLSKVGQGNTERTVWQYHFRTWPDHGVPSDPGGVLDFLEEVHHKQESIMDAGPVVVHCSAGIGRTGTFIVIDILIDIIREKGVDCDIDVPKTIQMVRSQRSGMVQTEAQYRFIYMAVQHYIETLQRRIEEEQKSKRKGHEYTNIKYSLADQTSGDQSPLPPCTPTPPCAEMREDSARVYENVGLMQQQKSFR
Assay: SHP2 Biochemical Assay
Protocol: SHP2 activity was monitored by measuring the conversion of the surrogate substrate 6,8-difluoromethylumbelliferyl phosphate (DiFMUP) to the fluorescent product, 6,8-difluoromethylumbelliferone (DiFMU).SHP2 was pre-incubated with test compounds and the activating peptide pIRS1 (H2N-LN(pY)IDLDLV-(PEG)8-LST(pY)ASINFQK-amide) for 30 min, prior to addition of the 6,8-difluoromethylumbelliferyl phosphate (DiFMUP), (Thermo Fisher D6567). Final assay concentrations were 10 pM SHP2, […] pIRS1 peptide, 50 μM DiFMUP, 25 mM Bis-Tris propane, pH 7.0, 150 mM NaCl, 0.05% (v/v) Tween-20, 0.5 mM TCEP and 5% (v/v) DMSO. Rates of reaction were then measured over 30 min by monitoring fluorescence on a BMG Pherastar reader at excitation 360 nm/emission 450 nm. IC50 values were calculated in singlicate from the normalized dose-response plots using four parameter logistic curve fit. The Experiment for each compound was carried out in one time or multiple times, and the IC50 values were shown as a single value (for a compound measured in a single experiment) or an average value (for a compound measured in multiple experiments).

Cn1c(N2[C@H]3CC[C@@H]2[C@H](N)C3)nc2[nH]cc(-c3ccc4ncsc4c3Cl)c2c1=O [US12037345, Example 101]
IC50: 1.5 nM
